Experimental findings from PubChem BioAssay (NCI) are described below.

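48-hour exposure; five concentrations; linearly interpolated endpoints. TGI marks complete inhibition of growth.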

One experiment has as its system UACC-62 melanoma. The experiment is described as follows: NCI anticancer screen, dose series, 48 h.
Consider `COc1ccc(-c2c(C3=NCCCN3)nnn2-c2ccc([N+](=O)[O-])cc2)cc1`, for which the TGI was > 100 µM.

A further experiment deals with KM20L2 colon. The experiment in a line: NCI anticancer screen, dose series, 48 h.
`c1ccc2c(c1)CCCC/C2=N/OCC1CO1` (stereo unspecified): the TGI was > 100 µM.

Turning to `C=C1C(=O)C23C(O)CC4C5(C)CCCC4(C(O)OC5)C2C(OC(C)=O)CC1C3O` (stereo unspecified), the TGI turned out to be 21.2 µM.

As to `COc1ccc(-c2c(C3=NCCCN3)nnn2-c2ccc([N+](=O)[O-])cc2)cc1`, the TGI is > 100 µM.

In the next experiment the test system is SK-MEL-2 melanoma. The experiment in a line: NCI anticancer screen, dose series, 48 h.
`c1ccc2c(c1)CCCC/C2=N/OCC1CO1` (stereo unspecified): the TGI is > 100 µM.

Turning to `C=C1C(=O)C23C(O)CC4C5(C)CCCC4(C(O)OC5)C2C(OC(C)=O)CC1C3O` (stereo unspecified), the TGI is 30.3 µM.

Consider `O=C1CNS(=O)(=O)N1`, for which the TGI is > 100 µM.

As to `COc1ccc(-c2c(C3=NCCCN3)nnn2-c2ccc([N+](=O)[O-])cc2)cc1`, the TGI was > 100 µM.

The test system of another experiment is RPMI-8226 leukemia. The experiment in a line: NCI anticancer screen, dose series, 48 h.
As to `c1ccc2c(c1)CCCC/C2=N/OCC1CO1` (stereo unspecified), the TGI came to 72.9 µM.

Consider `C=C1C(=O)C23C(O)CC4C5(C)CCCC4(C(O)OC5)C2C(OC(C)=O)CC1C3O` (stereo unspecified), for which the TGI came out at 17.7 µM.

With `O=C1CNS(=O)(=O)N1`, the TGI was > 100 µM.

For `COc1ccc(-c2c(C3=NCCCN3)nnn2-c2ccc([N+](=O)[O-])cc2)cc1`, the TGI was > 100 µM.

The next experiment concerns ACHN renal. The experiment is described as follows: NCI anticancer screen, dose series, 48 h.
`c1ccc2c(c1)CCCC/C2=N/OCC1CO1` (stereo unspecified): the TGI was > 100 µM.

With `C=C1C(=O)C23C(O)CC4C5(C)CCCC4(C(O)OC5)C2C(OC(C)=O)CC1C3O` (stereo unspecified), the TGI is 25.3 µM.

For `COc1ccc(-c2c(C3=NCCCN3)nnn2-c2ccc([N+](=O)[O-])cc2)cc1`, the TGI was > 100 µM.

The test system of another experiment is DMS 114 small cell lung. The experiment is described as follows: NCI anticancer screen, dose series, 48 h.
Take `c1ccc2c(c1)CCCC/C2=N/OCC1CO1` (stereo unspecified): the TGI was > 100 µM.

`C=C1C(=O)C23C(O)CC4C5(C)CCCC4(C(O)OC5)C2C(OC(C)=O)CC1C3O` (stereo unspecified) yielded a TGI of 22.2 µM.

`O=C1CNS(=O)(=O)N1`: the TGI was > 100 µM.

With `COc1ccc(-c2c(C3=NCCCN3)nnn2-c2ccc([N+](=O)[O-])cc2)cc1`, the TGI was > 100 µM.

The next experiment relates to OVCAR-4 ovarian. The experiment in a line: NCI anticancer screen, dose series, 48 h.
For the compound `C=C1C(=O)C23C(O)CC4C5(C)CCCC4(C(O)OC5)C2C(OC(C)=O)CC1C3O` (stereo unspecified), the TGI was 27.8 µM.

Take `O=C1CNS(=O)(=O)N1`: the TGI was > 100 µM.

With `COc1ccc(-c2c(C3=NCCCN3)nnn2-c2ccc([N+](=O)[O-])cc2)cc1`, the TGI was > 100 µM.

The next experiment concerns IGROV1 ovarian. The experiment in a line: NCI anticancer screen, dose series, 48 h.
On to `c1ccc2c(c1)CCCC/C2=N/OCC1CO1` (stereo unspecified), for which the TGI is > 100 µM.

`C=C1C(=O)C23C(O)CC4C5(C)CCCC4(C(O)OC5)C2C(OC(C)=O)CC1C3O` (stereo unspecified) gave a TGI of 39.2 µM.

As for `O=C1CNS(=O)(=O)N1`, the TGI is > 100 µM.

With `COc1ccc(-c2c(C3=NCCCN3)nnn2-c2ccc([N+](=O)[O-])cc2)cc1`, the TGI is > 100 µM.

In a further experiment the test system is XF 498 CNS. The experiment in a line: NCI anticancer screen, dose series, 48 h.
`c1ccc2c(c1)CCCC/C2=N/OCC1CO1` (stereo unspecified) had a TGI of 77.3 µM.

In the case of `O=C1CNS(=O)(=O)N1`, the TGI is > 100 µM.

A further experiment has as its system SNB-19 CNS. The experiment is described as follows: NCI anticancer screen, dose series, 48 h.
`C=C1C(=O)C23C(O)CC4C5(C)CCCC4(C(O)OC5)C2C(OC(C)=O)CC1C3O` (stereo unspecified) yielded a TGI of 28.1 µM.

For `O=C1CNS(=O)(=O)N1`, the TGI was > 100 µM.

On to `COc1ccc(-c2c(C3=NCCCN3)nnn2-c2ccc([N+](=O)[O-])cc2)cc1`, for which the TGI is > 100 µM.

The test system of a further experiment is NCI-H226 lung. The experiment is described as follows: NCI anticancer screen, dose series, 48 h.
In turn, `c1ccc2c(c1)CCCC/C2=N/OCC1CO1` (stereo unspecified) yielded a TGI of 90.9 µM.

`C=C1C(=O)C23C(O)CC4C5(C)CCCC4(C(O)OC5)C2C(OC(C)=O)CC1C3O` (stereo unspecified) came in with a TGI of 37.1 µM.

As for `O=C1CNS(=O)(=O)N1`, the TGI was > 100 µM.

Regarding `COc1ccc(-c2c(C3=NCCCN3)nnn2-c2ccc([N+](=O)[O-])cc2)cc1`, the TGI is > 100 µM.

The subject of another experiment is CCRF-CEM leukemia. The experiment in a line: NCI anticancer screen, dose series, 48 h.
With `c1ccc2c(c1)CCCC/C2=N/OCC1CO1` (stereo unspecified), the TGI is > 100 µM.

`C=C1C(=O)C23C(O)CC4C5(C)CCCC4(C(O)OC5)C2C(OC(C)=O)CC1C3O` (stereo unspecified) registered a TGI of 10.7 µM.

In the case of `O=C1CNS(=O)(=O)N1`, the TGI was > 100 µM.

As for `COc1ccc(-c2c(C3=NCCCN3)nnn2-c2ccc([N+](=O)[O-])cc2)cc1`, the TGI is > 100 µM.

The subject of another experiment is DMS 273 small cell lung. The experiment is described as follows: NCI anticancer screen, dose series, 48 h.
Turning to `c1ccc2c(c1)CCCC/C2=N/OCC1CO1` (stereo unspecified), the TGI was > 100 µM.

Turning to `C=C1C(=O)C23C(O)CC4C5(C)CCCC4(C(O)OC5)C2C(OC(C)=O)CC1C3O` (stereo unspecified), the TGI is 41.3 µM.

Consider `O=C1CNS(=O)(=O)N1`, for which the TGI was > 100 µM.

Take `COc1ccc(-c2c(C3=NCCCN3)nnn2-c2ccc([N+](=O)[O-])cc2)cc1`: the TGI is > 100 µM.

Another experiment concerns SNB-78 CNS. The experiment is described as follows: NCI anticancer screen, dose series, 48 h.
For `c1ccc2c(c1)CCCC/C2=N/OCC1CO1` (stereo unspecified), the TGI is > 100 µM.

`C=C1C(=O)C23C(O)CC4C5(C)CCCC4(C(O)OC5)C2C(OC(C)=O)CC1C3O` (stereo unspecified) came in with a TGI of 33.9 µM.

Consider `O=C1CNS(=O)(=O)N1`, for which the TGI was > 100 µM.

For `COc1ccc(-c2c(C3=NCCCN3)nnn2-c2ccc([N+](=O)[O-])cc2)cc1`, the TGI is > 100 µM.

A further experiment relates to KM12 colon. The experiment in a line: NCI anticancer screen, dose series, 48 h.
As for `c1ccc2c(c1)CCCC/C2=N/OCC1CO1` (stereo unspecified), the TGI is > 100 µM.

In the case of `C=C1C(=O)C23C(O)CC4C5(C)CCCC4(C(O)OC5)C2C(OC(C)=O)CC1C3O` (stereo unspecified), the TGI turned out to be 22.1 µM.

In the case of `O=C1CNS(=O)(=O)N1`, the TGI is > 100 µM.

Take `COc1ccc(-c2c(C3=NCCCN3)nnn2-c2ccc([N+](=O)[O-])cc2)cc1`: the TGI is > 100 µM.
